How the values were obtained:
Aromatase [1] = target: T1, Aromatase (Homo sapiens, UniProt P11511)
T1 sequence (P11511 whole entry): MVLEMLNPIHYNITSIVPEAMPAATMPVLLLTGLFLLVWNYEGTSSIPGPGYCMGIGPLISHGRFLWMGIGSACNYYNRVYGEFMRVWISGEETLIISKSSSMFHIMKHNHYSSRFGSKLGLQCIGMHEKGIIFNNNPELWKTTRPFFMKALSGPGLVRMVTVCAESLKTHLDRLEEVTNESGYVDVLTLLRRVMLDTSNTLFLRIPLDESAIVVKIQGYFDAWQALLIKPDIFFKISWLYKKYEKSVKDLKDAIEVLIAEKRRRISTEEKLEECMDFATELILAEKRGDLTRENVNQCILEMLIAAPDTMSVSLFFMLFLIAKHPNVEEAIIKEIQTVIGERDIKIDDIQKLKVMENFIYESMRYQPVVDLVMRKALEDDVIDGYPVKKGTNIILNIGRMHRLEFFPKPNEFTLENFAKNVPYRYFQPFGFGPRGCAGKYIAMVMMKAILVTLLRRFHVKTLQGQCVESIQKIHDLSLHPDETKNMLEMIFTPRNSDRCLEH
Description: Inhibition of human aromatase preincubated for 10 mins followed by NADP+/fluorogenic substrate mixture addition and measured for 60 mins by fluorimetric assay

physchem = details: octanol/water
Description: Octanol/water partition coefficient, log P of the compound

Albumin [2] = target: T2, Albumin (Homo sapiens, UniProt P02768); test: Binding affinity to human serum albumin phosphate buffer at pH 7.4 assessed as conformational change in HSA by measuring increase in absorbance at 20 uM by UV-Vis absorption spectrum based analysis; format: ADME; details: isolated protein, pH 7.4, 20 µM
MDA-MB-231 = test: Growth inhibition of estrogen receptor negative human MDA-MB-231 cells at 10 uM incubated for 48 hrs by SRB assay relative to control; format: functional; details: read-out: GI
MCF7 = test: cells; details: Homo sapiens, MCF7, 48 h, read-out: GI
T47D = test: cells; details: Homo sapiens, 48 h, read-out: GI
MDA-MB-468 = test: Growth inhibition of estrogen receptor negative human MDA-MB-468 cells at 10 uM incubated for 48 hrs by SRB assay relative to control; format: functional; details: read-out: GI
Aromatase [3] = target: T1, Aromatase; test: Binding affinity to human aromatase assessed as hyperchromic shift by measuring increase in absorbance intensity at 5 uM by UV-Vis spectral analysis
Aromatase [4] = target: T1, Aromatase; test: Binding affinity to human aromatase assessed as binding constant by Benesi-Hildebrand equation based analysis
Aromatase [5] = target: T1, Aromatase; test: Binding affinity to human aromatase assessed as inhibition constant by Cheng-Prosuff equation based analysis
Aromatase [6] = target: T1, Aromatase; test: Binding affinity to human aromatase assessed as change in free energy
Albumin [7] = target: T2, Albumin; test: Binding affinity to human serum albumin assessed as binding constant by spectrophotometer; format: ADME; details: isolated protein
Aromatase [8] = target: T1, Aromatase; test: Competitive inhibition of human aromatase using varying concentrations of androstenedione as substrate assessed as […] in Km with constant Vmax at 10 uM by Lineweaver-Burk equation based analysis
Hs-578T = test: cells; details: Homo sapiens, 48 h, read-out: GI
in vitro = details: human, plasma
Description: Stability in human plasma assessed drug degradation at 50 uM measured after 120 mins by spectrometer

BT-549 = test: cells; details: Homo sapiens, BT-549, 48 h, read-out: GI

T2 sequence (P02768 whole entry): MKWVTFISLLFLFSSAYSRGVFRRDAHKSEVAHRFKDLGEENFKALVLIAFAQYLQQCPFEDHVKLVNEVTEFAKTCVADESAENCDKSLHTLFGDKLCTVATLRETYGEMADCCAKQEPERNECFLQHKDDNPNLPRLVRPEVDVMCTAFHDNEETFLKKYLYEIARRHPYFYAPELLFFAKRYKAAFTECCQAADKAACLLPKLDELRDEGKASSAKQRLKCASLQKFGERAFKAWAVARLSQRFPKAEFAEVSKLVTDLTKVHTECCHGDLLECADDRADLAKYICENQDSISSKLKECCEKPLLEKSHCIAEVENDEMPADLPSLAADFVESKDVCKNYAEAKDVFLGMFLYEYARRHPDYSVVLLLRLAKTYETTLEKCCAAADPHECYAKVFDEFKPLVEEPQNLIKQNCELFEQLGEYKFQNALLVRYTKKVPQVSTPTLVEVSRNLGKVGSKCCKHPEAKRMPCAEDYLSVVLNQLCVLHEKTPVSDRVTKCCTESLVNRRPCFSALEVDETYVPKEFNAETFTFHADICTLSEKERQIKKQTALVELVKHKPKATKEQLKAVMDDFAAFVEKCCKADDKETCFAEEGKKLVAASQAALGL

CCOC(=O)C(=O)c1cn(CCCCCNc2ccc(/C(=C(/C)c3cccc(Br)c3)c3ccccc3)cc2)c2ccccc12
IC50 (Aromatase [1]): 790 nM
logP (physchem): 5.16

CCOC(=O)C(=O)Nc1ccc(/C(=C(/C)c2ccc(Cl)cc2)c2ccccc2)cc1
Activity (Albumin [2]): Active

C/C(=C(\c1ccccc1)c1ccc(NCCCCCn2cc(C(=O)C(=O)O)c3ccccc32)cc1)c1cccc(Br)c1
IC50 (Aromatase [1]): 800 nM
logP (physchem): 5.33

COc1ccccc1/C(C)=C(/c1ccccc1)c1ccc(NCCCCCn2cc(C(=O)C(=O)O)c3ccccc32)cc1
IC50 (Aromatase [1]): 12300 nM
logP (physchem): 4.46

CC(=C(c1ccccc1)c1ccc(NCCCCCCn2cc(C(=O)C(=O)O)c3ccccc32)cc1)c1ccccc1
logP (physchem): 5.15

CCOC(=O)C(=O)c1cn(CCCNc2ccc(C(=C(C)c3ccccc3)c3ccccc3)cc2)c2ccccc12
inhibition of growth at 10 µM (MDA-MB-231): 13.6%
IC50 (Aromatase [1]): 650 nM
inhibition of growth at 10 µM (MCF7): 10.9%
inhibition of growth at 10 µM (T47D): 41%
logP (physchem): 4.46

CCOC(=O)C(=O)Nc1ccc(/C(=C(/C)c2ccc(OC)cc2)c2ccccc2)cc1
Activity (Albumin [2]): Active

CCOC(=O)C(=O)c1cn(CCCCCNc2ccc(C(=C(C)c3ccccc3)c3ccccc3)cc2)c2ccccc12
inhibition of growth at 10 µM (MDA-MB-231): 18.2%
inhibition of growth at 10 µM (MDA-MB-468): 24.3%
Activity (Aromatase [3]): Active
Ka (Aromatase [4]): 5.5 10^4/M
Ki (Aromatase [5]): 26 nM
deltaG (Aromatase [6]): -6.72 kcal/mol
Ka (Albumin [7]): 2.8 10^4/M
Activity (Albumin [2]): Active
inhibition (INH) (Aromatase [8]): Active
IC50 (Aromatase [1]): 54 nM
inhibition of growth at 10 µM (MCF7): 8.48%
inhibition of growth at 10 µM (T47D): 30.1%
inhibition of growth at 10 µM (Hs-578T): 6.04%
metabolised at 2 h, 50 µM (in vitro): 15.5%
logP (physchem): 4.81

C/C(=C(\c1ccccc1)c1ccc(NCCCCn2cc(C(=O)C(=O)O)c3ccccc32)cc1)c1cccc(Br)c1
IC50 (Aromatase [1]): 6800 nM
logP (physchem): 5.15

CCOC(=O)C(=O)c1cn(CCCCNc2ccc(/C(=C(/C)c3cccc(Br)c3)c3ccccc3)cc2)c2ccccc12
IC50 (Aromatase [1]): 3860 nM
logP (physchem): 4.99

N#Cc1ccc(C(c2ccc(C#N)cc2)n2cncn2)cc1 [LETROZOLE]
logP (physchem): 2.29

CCOC(=O)C(=O)c1cn(CCNc2ccc(C(=C(C)c3ccccc3)c3ccccc3)cc2)c2ccccc12
IC50 (Aromatase [1]): 1390 nM
logP (physchem): 4.28

CCOC(=O)C(=O)c1cn(CCCCCNc2ccc(/C(=C(/C)c3ccccc3OC)c3ccccc3)cc2)c2ccccc12
IC50 (Aromatase [1]): 133 nM
logP (physchem): 4.31

CC(=C(c1ccccc1)c1ccc(NCCCCCn2cc(C(=O)C(=O)O)c3ccccc32)cc1)c1ccccc1
inhibition of growth at 10 µM (MDA-MB-468): 7.71%
IC50 (Aromatase [1]): 3170 nM
inhibition of growth at 10 µM (T47D): 13%
inhibition of growth at 10 µM (Hs-578T): 12.4%
logP (physchem): 4.97

CC/C(=C(\c1ccccc1)c1ccc(OCCN(C)C)cc1)c1ccccc1 [TAMOXIFEN]
inhibition of growth at 10 µM (MDA-MB-231): 54.8%
inhibition of growth at 10 µM (MDA-MB-468): -13.3%
inhibition of growth at 10 µM (MCF7): -10.3%
inhibition of growth at 10 µM (Hs-578T): 39.5%
inhibition of growth at 10 µM (BT-549): 30.2%

CCOC(=O)C(=O)c1cn(CCCCNc2ccc(C(=C(C)c3ccccc3)c3ccccc3)cc2)c2ccccc12
IC50 (Aromatase [1]): 500 nM
inhibition of growth at 10 µM (T47D): 5.76%
logP (physchem): 4.63

CC(=C(c1ccccc1)c1ccc(NCCCCn2cc(C(=O)C(=O)O)c3ccccc32)cc1)c1ccccc1
inhibition of growth at 10 µM (MDA-MB-468): 12.9%
IC50 (Aromatase [1]): 1370 nM
inhibition of growth at 10 µM (MCF7): 14.3%
inhibition of growth at 10 µM (T47D): 13.7%
inhibition of growth at 10 µM (Hs-578T): 60.2%
inhibition of growth at 10 µM (BT-549): 40.2%
logP (physchem): 4.79

CC(=C(c1ccccc1)c1ccc(NCCn2cc(C(=O)C(=O)O)c3ccccc32)cc1)c1ccccc1
inhibition of growth at 10 µM (MDA-MB-231): 13.3%
inhibition of growth at 10 µM (MDA-MB-468): 55.1%
IC50 (Aromatase [1]): 9730 nM
inhibition of growth at 10 µM (MCF7): 47.3%
inhibition of growth at 10 µM (T47D): 38.9%
inhibition of growth at 10 µM (Hs-578T): 46.4%
inhibition of growth at 10 µM (BT-549): 32.5%
logP (physchem): 4.43

CC(=C(c1ccccc1)c1ccc(NCCCn2cc(C(=O)C(=O)O)c3ccccc32)cc1)c1ccccc1
IC50 (Aromatase [1]): 178 nM
inhibition of growth at 10 µM (Hs-578T): 14.1%
inhibition of growth at 10 µM (BT-549): 14.8%
logP (physchem): 4.61

CCOC(=O)C(=O)c1cn(CCCCCCNc2ccc(C(=C(C)c3ccccc3)c3ccccc3)cc2)c2ccccc12
IC50 (Aromatase [1]): 1940 nM
logP (physchem): 4.98

CCOC(=O)C(=O)c1cn(CCCCNc2ccc(/C(=C(/C)c3ccccc3OC)c3ccccc3)cc2)c2ccccc12
IC50 (Aromatase [1]): 3200 nM
logP (physchem): 4.13

COc1ccccc1/C(C)=C(/c1ccccc1)c1ccc(NCCCCn2cc(C(=O)C(=O)O)c3ccccc32)cc1
IC50 (Aromatase [1]): 550 nM
logP (physchem): 4.29
